Measured values taken from article PMC4832229 (Scientific Reports, 2016).
Read-outs that look alike come from different tables or passages of the source. Each block holds one compound with its values, some of them ahead of it.

How the values were obtained:
ROS in C6 cells = test: ROS assay (CellROX) in C6 cells; assay type: cell-based, rat; conditions: for effect on cisplatin-induced ROS: co-administered with cisplatin, CYM-5478 10 μM; for effect on CYM-5478-mediated attenuation of cisplatin-induced ROS: cisplatin + CYM-5478
Procedure: Cells were plated in clear-bottom, black-walled 96-well plates at ~50% confluence, incubated overnight, then treated overnight with cisplatin in the presence of the indicated compounds. All conditions were vehicle-controlled (0.1% DMSO). […] Cells were photographed with a 20X objective lens, 3 fields per well, 3 wells per condition. Quantification was performed using ImageJ software, but dividing the total integrated density of CellROX® labelling by the number of cells per Hoechst staining.

S1P3 = target: T1, S1P3 (Homo sapiens, UniProt Q99500); test: TGFα-shedding assay, S1P3; assay type: cell-based; conditions: for EC50: HEK293 cells, ligand 1 hour
T1 construct: expressed in transfected cells; host or cells: HEK293
T1 sequence (Q99500 whole entry, species assumed): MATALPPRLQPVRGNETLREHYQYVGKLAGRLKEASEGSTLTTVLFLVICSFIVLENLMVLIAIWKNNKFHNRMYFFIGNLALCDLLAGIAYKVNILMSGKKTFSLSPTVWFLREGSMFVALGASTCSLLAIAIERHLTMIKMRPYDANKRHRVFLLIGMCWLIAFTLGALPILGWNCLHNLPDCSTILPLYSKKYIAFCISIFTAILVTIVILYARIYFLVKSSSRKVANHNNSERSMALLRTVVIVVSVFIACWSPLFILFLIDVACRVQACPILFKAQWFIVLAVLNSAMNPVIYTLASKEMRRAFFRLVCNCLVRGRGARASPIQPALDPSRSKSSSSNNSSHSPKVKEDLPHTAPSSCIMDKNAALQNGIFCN
Procedure: (§1) The TGFα-shedding assay was performed essentially as described. Briefly, HEK293 cells were co-transfected with the indicated receptor expression construct and TGFα-alkaline phosphatase using Lipofectamine 2000 reagent (cat #11668019, Thermo Fisher), collected by trypsinization, washed with phosphate-buffered saline, and seeded into 96-well plates in Hank’s Balanced Saline Solution (HBSS). To improve assay sensitivity, S1P1 and S1P2 cells were co-transfected with Gαq/i1 chimeric protein, and S1P4 and S1P5 were co-transfected with Gαq/16, as previously described. Cells were stimulated with ligand for 1 hour, then alkaline phosphatase activity was detected in cells and in the supernatant. Receptor activity (% shedding) was defined as alkaline phosphatase activity of the supernatant/total alkaline phosphatase activity (cells + supernatant). Data processing and statistical analyses were performed with GraphPad Prism 6.

C6 cells = test: Cell death assay (propidium iodide exclusion) in C6 cells; assay type: cell-based, rat
Procedure: Cell death was evaluated by propidium iodide exclusion assay. Cells were plated in 96-well plates at ~50% confluence, incubated overnight, then treated with cisplatin (67 μM) for 24 hours in the presence of vehicle or 10 μM CYM-5478. Cell were treated with Hoechst 33342 (1 mg/ml) and propidium iodide (0.3 mg/ml) for 20 minutes, washed with phosphate-buffered saline, then rapidly photographed with a Cytation 3 automated imager (Biotek Instruments, Inc.). % cell death reflects a ratio of propidium iodide-positive and Hoechst 33342-positive cells.

[1] = test system: other S1P receptor subtypes; test: TGFα-shedding assay, other S1P receptor subtypes (summary statement); assay type: cell-based; conditions: subtypes other than S1P2
Procedure: as §1

S1P4 = target: T2, S1P4 (Homo sapiens, UniProt O95977); test: TGFα-shedding assay, S1P4; assay type: cell-based; conditions: for EC50: HEK293 cells, ligand 1 hour
T2 construct: expressed in transfected cells; host or cells: HEK293
T2 sequence (O95977 1-384): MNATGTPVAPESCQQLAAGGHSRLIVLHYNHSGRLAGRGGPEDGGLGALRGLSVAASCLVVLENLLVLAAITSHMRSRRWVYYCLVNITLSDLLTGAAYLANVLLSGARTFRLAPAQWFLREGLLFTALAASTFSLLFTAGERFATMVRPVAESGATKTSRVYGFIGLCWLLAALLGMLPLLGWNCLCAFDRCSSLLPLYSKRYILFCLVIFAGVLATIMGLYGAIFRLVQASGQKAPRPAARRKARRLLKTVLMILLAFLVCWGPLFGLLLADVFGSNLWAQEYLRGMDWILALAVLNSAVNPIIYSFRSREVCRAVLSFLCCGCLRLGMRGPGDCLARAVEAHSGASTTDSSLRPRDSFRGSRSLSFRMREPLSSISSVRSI
Procedure: as §1

S1P2 [2] = target: T3, S1P2 (Homo sapiens, UniProt O95136); conditions: cited from earlier work
T3 construct: expressed in transfected cells; host or cells: HEK293
T3 sequence (O95136 whole entry, species assumed): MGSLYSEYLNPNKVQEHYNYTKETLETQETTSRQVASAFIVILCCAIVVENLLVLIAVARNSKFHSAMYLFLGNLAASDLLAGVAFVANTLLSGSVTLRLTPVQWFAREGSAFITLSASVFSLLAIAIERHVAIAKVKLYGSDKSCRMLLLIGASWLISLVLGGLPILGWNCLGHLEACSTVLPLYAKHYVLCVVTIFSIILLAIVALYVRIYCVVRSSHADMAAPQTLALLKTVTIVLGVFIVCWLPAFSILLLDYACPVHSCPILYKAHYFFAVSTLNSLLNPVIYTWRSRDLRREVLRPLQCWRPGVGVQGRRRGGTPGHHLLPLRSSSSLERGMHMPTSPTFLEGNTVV

S1P1 = target: T4, S1P1 (Homo sapiens, UniProt P21453); test: TGFα-shedding assay, S1P1; assay type: cell-based; conditions: for EC50: HEK293 cells, ligand 1 hour
T4 construct: expressed in transfected cells; host or cells: HEK293
T4 sequence (P21453 whole entry, species assumed): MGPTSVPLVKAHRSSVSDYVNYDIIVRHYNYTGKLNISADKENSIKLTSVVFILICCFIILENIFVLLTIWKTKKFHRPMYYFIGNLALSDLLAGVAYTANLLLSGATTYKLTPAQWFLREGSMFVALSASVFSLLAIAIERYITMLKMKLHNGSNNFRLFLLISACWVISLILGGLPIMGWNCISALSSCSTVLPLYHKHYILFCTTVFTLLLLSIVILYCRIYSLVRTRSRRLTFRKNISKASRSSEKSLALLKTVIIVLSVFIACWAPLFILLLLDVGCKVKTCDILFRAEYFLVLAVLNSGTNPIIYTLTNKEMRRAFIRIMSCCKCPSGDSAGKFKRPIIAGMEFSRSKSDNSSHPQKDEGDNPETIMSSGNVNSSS
Procedure: as §1

[3] = test system: caspase 3/7 activity in C6 cells; test: Caspase-Glo 3/7 assay in C6 cells; assay type: cell-based, rat
Procedure: Cells were plated in clear-bottom, black-walled 96-well plates at ~50% confluence, incubated overnight, then treated overnight with cisplatin in the presence of vehicle or 10 μM CYM-5478. Caspase activation was evaluated by Caspase-Glo 3/7 Assay System (Promega Corporation) per manufacturer’s instructions.

[4] = test system: MDA-MB-231 breast cancer cells; test: Cell rounding assay in MDA-MB-231 cells (endogenous S1P2); assay type: cell-based; conditions: for cell rounding response: serum-starved MDA-MB-231 cells, S1P 1 μM
Procedure: Cell rounding was performed essentially as described. […] After 15 min, the cells were fixed and stained with fluorescein phalloidin and DAPI for cell morphology. The number of cells with retracted neurites and the number of total cells were counted in three separate fields for each sample, and the percentage of cells with retracted neurites was calculated.

S1P2-EGFP = target: T5, S1P2-EGFP (Homo sapiens, UniProt O95136); test: Receptor internalization assay, S1P2-EGFP; assay type: cell-based; conditions: 1 μM ligand
T5 construct: expressed in transfected cells
T5 sequence (O95136 whole entry): as the sequence (O95136 whole entry, species assumed) above

S1P5 = target: T6, S1P5 (Homo sapiens, UniProt Q9H228); test: TGFα-shedding assay, S1P5; assay type: cell-based
T6 construct: expressed in transfected cells; host or cells: HEK293
T6 sequence (Q9H228 whole entry, species assumed): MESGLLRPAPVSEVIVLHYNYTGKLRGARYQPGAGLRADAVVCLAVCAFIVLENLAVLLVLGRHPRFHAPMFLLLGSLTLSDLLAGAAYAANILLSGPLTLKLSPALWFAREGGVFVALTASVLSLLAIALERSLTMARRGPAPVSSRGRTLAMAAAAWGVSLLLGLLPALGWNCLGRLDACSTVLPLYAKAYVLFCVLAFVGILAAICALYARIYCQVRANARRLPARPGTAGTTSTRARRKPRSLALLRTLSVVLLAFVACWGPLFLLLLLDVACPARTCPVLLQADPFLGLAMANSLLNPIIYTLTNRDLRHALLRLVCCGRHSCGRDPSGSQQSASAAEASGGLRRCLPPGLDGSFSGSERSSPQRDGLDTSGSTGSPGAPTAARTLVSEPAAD
Procedure: as §1

S1P2 [5] = target: T3, S1P2; test: TGFα-shedding assay, S1P2; assay type: cell-based
Procedure: as §1

C6 rat glioma cells = test: Viability assay (MTT) in C6 cells; assay type: cell-based; conditions: for EC50: vehicle
Procedure: Cell viability was determined by 3-(4,5-dimethylthiazol-2-yl)-2,5-diphenyltetrazolium bromide (MTT) assay as described. Briefly, C6 cells were seeded into 96-well plates at 20,000 cells/well, incubated overnight, serum-starved for 4 h, and treated for 72 hours with cisplatin in the presence of CYM-5478 or vehicle.

S1P1-EGFP = target: T7, S1P1-EGFP (Homo sapiens, UniProt P21453); test: Receptor internalization assay, S1P1-EGFP; assay type: cell-based; conditions: 1 μM ligand
T7 construct: expressed in transfected cells
T7 sequence (P21453 whole entry): as the sequence (P21453 whole entry, species assumed) above

[6] = test system: NOX3 complex (Nox3, NoxO1, NoxA1); test: NOX3 activity assay (luminol) in transfected HEK293 cells; assay type: cell-based; conditions: HEK293, S1P 1 μM, 15 minutes
Procedure: NOX3 activity was determined as previously described. […] Indicated values were taken 15 minutes following stimulation.

S1P3-EGFP = target: T8, S1P3-EGFP (Homo sapiens, UniProt Q99500); test: Receptor internalization assay, S1P3-EGFP; assay type: cell-based; conditions: 1 μM ligand
T8 construct: expressed in transfected cells
T8 sequence (Q99500 whole entry): as the sequence (Q99500 whole entry, species assumed) above

EC50 (S1P3): 1950 nM | S1P3 Emax (S1P3; relative to S1P): 20.8% | efficacy against the other S1P receptor subtypes [1]: less than 25% | lower potency against the other S1P receptor subtypes vs S1P2 [1]: 10 fold | EC50 (S1P4): > 10000 nM | EC50 (S1P1): 1690 nM | S1P1 Emax (S1P1; relative to S1P): 24.2% | internalization of S1P2-EGFP (S1P2-EGFP): induced the internalization of S1P2-EGFP | EC50 (S1P5; HEK293 cells, ligand 1 hour): > 10000 nM | EC50 (S1P2 [5]; HEK293 cells, ligand 1 hour): 119 nM | S1P2 Emax (S1P2 [5]; relative to S1P): 99.5% | increase in EC50 of cisplatin conferred by co-administration (C6 rat glioma cells; C6 cells, 10 μM CYM-5478): 3 fold | effect on EC50 of cisplatin in the presence of 1 mM N-acetylcysteine (C6 rat glioma cells; C6 cells, vs vehicle-treated): no significant difference
Compound: Cc1cc(C(=O)Cn2cc(C(F)(F)F)ccc2=O)c(C)n1Cc1ccccc1 [CYM-5478]
effect on cisplatin-induced ROS (ROS in C6 cells): significantly attenuated | effect on cisplatin-induced increase in propidium iodide-positive cells (C6 cells; co-administration of 10 μM CYM-5478 with cisplatin 67 μM, 24 hours): attenuated | change in propidium iodide-positive cells, treatment alone (C6 cells; without cisplatin): no significant change | EC50 (S1P2 [2]; Scripps Research Institute Molecular Screening Center HTS, ref http://pubchem.ncbi.nlm.nih.gov/assay/assay.cgi?aid=872, read-out: EC50 in the original screen): 723 nM | EC50 (S1P2 [2]; read-out: EC50 in subsequent validation studies): 780 nM | effect on cisplatin-induced caspase 3/7 activity ([3]; co-administration of 10 μM CYM-5478): markedly attenuated | cell rounding response [4]: identical rounding response | increase in viability in the presence of 10% fetal bovine serum (C6 rat glioma cells; C6 cells, 10% fetal bovine serum (data not shown)): absent | protection of C6 cells from exogenously administered ROS (hydrogen peroxide) (C6 rat glioma cells; presence vs absence of CYM-5478): equally sensitive | concentrations giving statistically significant, dose dependent increase in viability (C6 rat glioma cells; serum-starved C6 cells, MTT): above 100 nM

Compound: N.N.[Cl][Pt][Cl] [Cisplatin, cis-Diammineplatinum(II) dichloride]
ROS accumulation (CellROX fluorescence) (ROS in C6 cells; cisplatin 20 μM, 24 hours): increase in ROS | increase in propidium iodide-positive cells (C6 cells; cisplatin 67 μM, 24 hours): > 3 fold | caspase 3/7 activity ([3]; overnight): significant increase in caspase 3/7 activity | EC50 (C6 rat glioma cells; C6 cells, 72 hours, MTT, read-out: EC50 of cisplatin-mediated reduction in viability, + vehicle): 1340 nM

Compound: c1ccc2c(c1)[I+]c1ccccc1-2 [DPI, diphenyleneiodonium]
effect on cisplatin-induced ROS (ROS in C6 cells): phenocopied

EC50 (C6 rat glioma cells; C6 cells, read-out: EC50 of hydrogen peroxide, + vehicle): 1860 nM
Compound: OO [H2O2, hydrogen peroxide]

Compound: CCN(CC)CCCC(C)Nc1nc(C)cc(Nc2ccc3nc(C)cc(N)c3c2)n1 (centres unmarked) [NSC23766]
effect on cisplatin-induced ROS (ROS in C6 cells): phenocopied

Emax (S1P3): 100% | EC50 (S1P3): 55.4 nM | Emax (S1P4): 100% | EC50 (S1P4): 175 nM | EC50 (S1P1): 115 nM | Emax (S1P5): 100% | Emax (S1P2 [5]): 100%
Compound: CCCCCCCCCCCCC/C=C/[C@@H](O)[C@@H](N)COP(=O)(O)O [S1P, sphingosine 1-phosphate]
internalization of S1P1-EGFP (S1P1-EGFP): largely internalized to cytoplasmic vesicles | S1P-dependent reduction of NOX3 ROS, co-transfected S1P1 [6]: not observed | S1P-dependent reduction of NOX3 ROS, co-transfected S1P3 [6]: not observed | effect on NOX3 ROS generation, co-transfected S1P2 [6]: further attenuated | cell rounding response [4]: pronounced cytoskeletal rearrangement characterized by process retraction and cell rounding | internalization of S1P2-EGFP (S1P2-EGFP): largely internalized to cytoplasmic vesicles | internalization of S1P3-EGFP (S1P3-EGFP): largely internalized to cytoplasmic vesicles

Compound: C[C@@H](N)[C@H]1CC[C@H](C(=O)Nc2ccncc2)CC1 [Y-27632]
effect on CYM-5478-mediated attenuation of cisplatin-induced ROS (ROS in C6 cells): complete attenuation of CYM-5478 activity | effect on cisplatin-induced ROS (ROS in C6 cells): no effect on cisplatin-induced ROS

Compound: JTE-013
effect on CYM-5478-mediated attenuation of cisplatin-induced ROS (ROS in C6 cells): complete attenuation of CYM-5478 activity | effect on cisplatin-induced ROS (ROS in C6 cells): no effect on cisplatin-induced ROS | effect of pre-treatment on CYM-5478-induced cell rounding ([4]; pre-treatment 15 minutes before CYM-5478): similarly abrogated | effect of pre-treatment on S1P-induced cell rounding ([4]; pre-treatment 15 minutes before S1P (1 μM)): completely abrogated
